Results reported in patent publication US7410767B1, “HLA-E binding” (Isis Innovation Limited, priority 1997, dated 2008).
Where two headings read alike, the source gives them in different places. No end group written: not given here.

Target: HLA-E (Homo sapiens, UniProt P13747, G128R)
Assay: in vitro peptide binding assay to HLA-E
From the text: Whatever form of HLA-E is used, a suitable peptide for binding in the HLA-E peptide groove will be required. […] Other peptides which bind to HLA-E may be used, for example peptides from viral proteins which may be the same as or different to MHC class I leader sequence peptides. […] A suitable assay for identifying synthetic peptides which bind to HLA-E is described in Braud et al 1997 Eur. J. Immunol. 27:1164-1169.

[1] = in vitro peptide binding assay, ratio of optical densities, read-out: Concentration of peptide required to obtain 50% of binding to HLA-E

With `CC(C)C[C@H](NC(=O)[C@H](CC(C)C)NC(=O)[C@@H](NC(=O)[C@@H](NC(=O)[C@H](CCCNC(=N)N)NC(=O)[C@@H]1CCCN1C(=O)[C@H](C)NC(=O)[C@@H](NC(=O)[C@@H](N)C(C)C)[C@@H](C)O)[C@@H](C)O)C(C)C)C(=O)O` the EC50 [1] was > 100000 nM.

`CSCC[C@H](NC(=O)[C@@H](N)C(C)C)C(=O)N[C@@H](C)C(=O)N1CCC[C@H]1C(=O)N[C@@H](CCCNC(=N)N)C(=O)N[C@H](C(=O)N[C@@H](CC(C)C)C(=O)N[C@H](C(=O)N[C@@H](CC(C)C)C(=O)O)C(C)C)[C@@H](C)O` was tested, and the EC50 [1] was 60 nM.

`CSCC[C@H](NC(=O)[C@@H](N)C(C)C)C(=O)N[C@@H](C)C(=O)N1CCC[C@H]1C(=O)N[C@@H](CCCNC(=N)N)C(=O)N[C@H](C(=O)N[C@H](C(=O)N[C@@H](CC(C)C)C(=O)N[C@@H](CC(C)C)C(=O)O)C(C)C)[C@@H](C)O` was tested, and the EC50 [1] was 60 nM.

In the case of VTAPRTLLL, the EC50 [1] is reported as > 100000 nM.

For `CSCC[C@H](NC(=O)[C@@H](N)C(C)C)C(=O)N[C@@H](C)C(=O)N1CCC[C@H]1C(=O)N[C@@H](CCCNC(=N)N)C(=O)N[C@H](C(=O)N[C@@H](CC(C)C)C(=O)N[C@@H](CC(C)C)C(=O)N[C@@H](CC(C)C)C(=O)O)[C@@H](C)O`, the EC50 was 300 nM.
